From patent US20220267331A1, “DOPAMINE-B-HYDROXYLASE INHIBITORS” (BIAL - PORTELA & CA, S.A., priority 2019, published 2022)

Target: T1, DβH (Homo sapiens, UniProt P09172)
T1 construct: 125 μL of plasma (or saline for blank reaction or standard curve); tissue Instituto Português do Sangue Transplantação, Centro Sangue Transplantação, Porto, Portugal; host or cells: human plasma from healthy donors
T1 sequence (P09172 40-617 limits assumed): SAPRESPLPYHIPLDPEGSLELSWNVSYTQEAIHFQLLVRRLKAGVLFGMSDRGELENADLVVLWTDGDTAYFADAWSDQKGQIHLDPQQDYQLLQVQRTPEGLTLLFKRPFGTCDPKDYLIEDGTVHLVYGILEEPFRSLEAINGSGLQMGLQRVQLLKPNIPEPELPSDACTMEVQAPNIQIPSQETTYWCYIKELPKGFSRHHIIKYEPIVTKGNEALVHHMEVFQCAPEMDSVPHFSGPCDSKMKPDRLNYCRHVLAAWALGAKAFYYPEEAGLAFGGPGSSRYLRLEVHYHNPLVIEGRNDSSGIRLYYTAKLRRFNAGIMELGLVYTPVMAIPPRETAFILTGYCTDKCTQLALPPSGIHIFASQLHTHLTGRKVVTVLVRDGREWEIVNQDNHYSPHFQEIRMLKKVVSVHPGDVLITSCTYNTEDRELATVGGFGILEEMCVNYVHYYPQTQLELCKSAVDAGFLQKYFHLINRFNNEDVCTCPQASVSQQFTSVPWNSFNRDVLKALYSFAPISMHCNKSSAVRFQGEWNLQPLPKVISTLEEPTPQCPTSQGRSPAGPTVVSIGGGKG
Assay: Dopamine-β-hydroxylase inhibition assay in human plasma
Format: biochemical
Settings: for DβH (0.01 μM) / remaining activity at 0.01 µM: DβH activity in human plasma at 0.01 μM inhibitor; for DβH (0.1 μM) / remaining activity at 0.1 µM: DβH activity in human plasma at 0.1 μM inhibitor; for IC50: human plasma, curve fitting of 6 concentrations (100 nM to 0.3 nM)
Procedure: The ability of a compound to inhibit DβH activity may be assessed in human plasma using the following assay.
Dopamine beta hydroxylase activity in human plasma was measured by the method of Nagatsu and Udenfriend (Nagatsu, T. and Udenfriend, S. “Photometric assay of dopamine-p-hydroxylase activity in human blood.” Clin. Chem. 18(9) 980-983, 1972) with minor modifications. Catalase, N-ethylmaleimide, tyramine, disodium fumarate, pargyline, sodium acetate, ascorbic acid, copper sulfate and octopamine were obtained from Sigma Chemical Co., St. Louis, Mo. 63178. Human plasma samples were obtained from healthy donors (Instituto Português do Sangue Transplantação, Centro Sangue Transplantação, Porto, Portugal). From date of collection, plasma was stored at −80° C. until use. Test compounds were initially prepared in dimethyl sulfoxide at a concentration of 10 mM and diluted in dimethyl sulfoxide to the required concentrations. Test compounds were further diluted in ultrapure water to a concentration 20-fold to that of the final concentration to be tested. Final concentrations of test compounds were 10 and 100 nM. The various reagents used to make up the incubation buffer were premixed and consisted of the following components: sodium acetate buffer (1 M, pH 5.0, 18 mL), sodium fumarate (0.2 M, 4.5 mL), ascorbic acid (0.2 M, 4.5 ml, freshly prepared), pargyline (20 mM, freshly prepared, 4.5 mL), N-ethylmaleimide (0.2 M, 4.5 mL), catalase (10 000 U/mL, 9 mL), copper sulfate (20 μM, 4.5 mL) and 4.5 ultrapure water. The standard incubation mixture (total volume, 950 μL) contained: 50 μL of compound or vehicle (dimethyl sulfoxide 2%); 700 μL of incubation buffer; 125 μL of plasma (or saline for blank reaction or standard curve); 75 μL of saline. The reaction mixture was placed in water bath, shaking at 37° C. and pre-incubated for 10 minutes. Tyramine (0.5 M) was added and incubation proceeded for 45 minutes. The reaction contents were exposed to air. A sample of enzyme preparation (with 125 μL of plasma) that had been added perchloric acid 2 M at the end of the pre-incubation period was used as blank. A blank for each of the tested compounds was used. For octopamine standard curve, perchloric acid 2 M was replaced by increasing concentrations of octopamine prepared in perchloric acid 2 M (0.5, 1, 2.5, 5, 7.5, 10, 15, 20 μg/mL, final concentration). The incubation was stopped by adding 200 μL of 2 M molar perchloric acid, and the mixture was centrifuged at 9000 g for 5 min. The supernatant fluid (800 μL) was transferred to a column (SPE cartridge ISOLUTE SCX-3, 100 mg) and centrifuged at 150 g for 2 min. The column was washed two more times with 0.5 ml of ultrapure water by centrifuging at 150 g for 2 min. The adsorbed octopamine was eluted twice with 0.3 mL of 4 M ammonium hydroxide by centrifuging at 150 g for 2 min. Octopamine in the eluate was then converted to p-hydroxybenzaldehyde by adding 200 μL of sodium periodate (2%) and incubating for 6 min. Excess periodate was than reduced by adding 200 μL of sodium metabisulfite (10%). Absorbance was measured at […] in a 96-well plate by use of a SpectraMAX plus 384 (Molecular Devices) with software SOFTmax® PRO Software 5.3 spectrophotometer. Absorbance was linear with octopamine concentration from 0.5 to 20 μg/mL. Dopamine beta hydroxylase activity is determined as nmol of octopamine formed/mL of plasma/hour and effect of compounds is presented as % control. Results are reported in the table below as activity in % of control at the inhibitor concentration tested.
IC50 values of selected compounds were calculated based on curve fitting of results of 6 different compound concentrations (100 nM to 0.3 nM). IC50 data are reported in nM concentration.

Row | DβH (0.01 μM) | DβH (0.1 μM) | IC50 [nM] | remaining activity at 0.1 µM [%] | remaining activity at 0.01 µM [%] | Compound
1 | 82.7 % of Control | 54.2 % of Control | – | – | – | Cl.NCCCc1[nH]c(=S)n2c1C[C@H](c1c(F)ccc(F)c1F)C2 [Example 4, (R)-1-(3-aminopropyl)-6-(2,3,6-trifluorophenyl)-2,5,6,7-tetrahydro-3H-pyrrolo[1,2-c]imidazole-3-thione hydrochloride]
2 | 64.6 % of Control | 12.9 % of Control | 12.7 | – | – | Cl.Fc1ccc(F)c([C@H]2Cc3c(CCCN4CCOCC4)[nH]c(=S)n3C2)c1F [Example 1, (R)-1-(3-morpholinopropyl)-6-(2,3,6-trifluorophenyl)-2,5,6,7-tetrahydro-3H-pyrrolo[1,2-c]imidazole-3-thione hydrochloride]
3 | 113.4 % of Control | – | – | 52.8 | – | CN(C)CCCc1[nH]c(=S)n2c1C[C@H](c1c(F)ccc(F)c1F)C2 [Example 8, (R)-1-(3-(dimethylamino)propyl)-6-(2,3,6-trifluorophenyl)-2,5,6,7-tetrahydro-3H-pyrrolo[1,2-c]imidazole-3-thione]
4 | – | – | 7.7 | 3.3 | 36.2 | Fc1ccc(Cl)cc1[C@]12C[C@H]1c1c(CCCN3CCOCC3)[nH]c(=S)n1C2 [Example 16, (5aS,6aR)-5a-(5-chloro-2-fluorophenyl)-1-(3-morpholinopropyl)-5,5a,6,6a-tetrahydrocyclopropa[3,4]pyrrolo[1,2-c]imidazole-3(2H)-thione]
5 | – | – | – | 8.5 | 45.3 | Fc1ccc(Cl)cc1[C@]12C[C@H]1c1c(CCCN[C@H]3CCCOC3)[nH]c(=S)n1C2 [Example 21, (5aS,6aR)-5a-(5-chloro-2-fluorophenyl)-1-(3-(((S)-tetrahydro-2H-pyran-3-yl)amino)propyl)-5,5a,6,6a-tetrahydrocyclopropa[3,4]pyrrolo[1,2-c]imidazole-3(2H)-thione]
6 | – | – | 4 | 1 | 20.1 | Fc1ccc(Cl)c(F)c1[C@]12C[C@H]1c1c(CCCNC3CCOCC3)[nH]c(=S)n1C2 [Example 18, (5aS,6aR)-5a-(3-chloro-2,6-difluorophenyl)-1-(3-((tetrahydro-2H-pyran-4-yl)amino)propyl)-5,5a,6,6a-tetrahydrocyclopropa[3,4]pyrrolo[1,2-c]imidazole-3(2H)-thione]
